Consider 36 compounds from US20120178765A1, “NOVEL GLUCOKINASE ACTIVATORS AND PROCESSES FOR THE PREPARATION THEREOF” (YUHAN CORPORATION, priority 2009, published 2012).

This assay has as its target T1, Glucokinase (Homo sapiens, UniProt P35557).
T1 construct: purchased ProteinOne Inc
T1 sequence (P35557 1-465): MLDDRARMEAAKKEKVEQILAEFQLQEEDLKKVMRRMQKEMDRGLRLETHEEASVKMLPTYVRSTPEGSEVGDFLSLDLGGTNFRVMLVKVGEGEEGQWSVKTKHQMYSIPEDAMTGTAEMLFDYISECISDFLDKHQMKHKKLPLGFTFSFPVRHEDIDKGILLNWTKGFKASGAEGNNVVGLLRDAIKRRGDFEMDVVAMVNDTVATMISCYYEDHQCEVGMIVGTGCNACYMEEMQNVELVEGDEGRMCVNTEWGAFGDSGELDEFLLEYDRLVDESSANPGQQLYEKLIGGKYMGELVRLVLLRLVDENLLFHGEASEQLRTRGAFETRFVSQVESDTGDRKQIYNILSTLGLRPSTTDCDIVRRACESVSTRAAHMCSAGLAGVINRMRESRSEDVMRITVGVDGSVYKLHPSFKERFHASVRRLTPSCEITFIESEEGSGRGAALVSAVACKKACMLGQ
Nature of the assay: Glucokinase activation assay (NADPH absorbance at 340 nm). The class given is biochemical. The conditions noted are these: glucokinase (ProteinOne Inc.), 5 mM D(+)-glucose, 24° C., 90 minutes. Here is the method: The amounts of glucokinase activation were determined by measuring the levels of NADPH (the final metabolite of glucose through glucokinase-mediated phospho-rylation) and then calculating to glucokinase activities.
Glucokinase (ProteinOne Inc.) was added, in the concentration of 100 ng/uL, to a enzyme-reaction medium (25 mM HEPES pH 7, 25 mM KCL, 1 mM MgCl, 5 mM D(+)-glucose, 1 mM ATP, 1 mM NADP, 1 mM DTT, and 2.5 u/mL G6PDH). Each compound in predetermined concentrations was added to the enzyme-reaction medium and then absorbance (First Absorbance) was measured at 340 nm of wavelength. After measuring the first absorbance, each reaction mixture was incubated at 24° C. for 90 minutes and then absorbance (Second Absorbance) was re-measured at 340 nm of wavelength. Using changes between First Absorbance and Second Absorbance, glucokinase activity was calculated. In the calculation, a maximum activity of the test compound (Emax), in comparison to the control group (no treatment of compound) was determined and then EC50 was calculated using the software for statistical analysis “Prism”, based on the activity-changes according to concentrations of the test compounds.
The amounts of glucokinase activation of the compounds of Comparative Examples 1 and 2 were determined, in accordance with the same procedures as in Test Example 1.
Regarding “3-{2-[4-(3-phenyl-ureido)phenyl]ethyl}-5-(2-methoxy-(1S)-methyl-ethoxy)-N-(thiazol-2-yl)-benzamide [Example 145]”, the midpoint of the response, the EC50, lay at 319 nM. In other words, the sub-micromolar range. With “3-[2-(2,3-dimethoxyphenyl)ethyl]-5-(2-methoxy-(1S)-methyl-ethoxy)-N-(thiazol-2-yl)-benzamide [Example 90]”, the EC50 (in general, the concentration at which the effect is half-maximal) is 322 nM. For “3-[2-(2-aminophenyl)ethyl]-5-(2-methoxy-(1S)-methyl-ethoxy)-N-(thiazol-2-yl)-benzamide [Example 88]”, the EC50 turned out to be 108 nM. On to “3-[2-(2,4-difluorophenyl)ethyl]-5-(2-methoxy-(1S)-methyl-ethoxy)-N-(thiazol-2-yl)-benzamide [Example 85]”, for which a half-maximal effect (EC50) was put at 9.5 nM. This EC50 lies about 11-fold lower than the previous one. “3-[trans-2-(4-bromophenyl)vinyl]-5-(2-methoxy-(1S)-methyl-ethoxy)-N-(pyrazin-2-yl)-benzamide [Example 60]”: the EC50 stood at 397 nM. In turn, `COC[C@H](C)Oc1cc(/C=C/c2ccccc2OC)cc(C(=O)Nc2ccc(C(=O)OC)cn2)c1` [Example 61, 3-[trans-2-(2-methoxyphenyl)vinyl]-5-(2-methoxy-(1S)-methyl-ethoxy)-N-(nicotinic acid-3-methyl ester-6-yl)-benzamide] returned an EC50 of 276 nM. This EC50 and that of the compound before are within 1.5-fold of each other. Take `COC[C@H](C)Oc1cc(/C=C/c2c(F)cccc2F)cc(C(=O)Nc2nccs2)c1` [Example 12, 3-[trans-2-(2,6-difluorophenyl)vinyl]-5-(2-methoxy-(1S)-methyl-ethoxy)-N-(thiazol-2-yl)-benzamide]: the midpoint of the response, the EC50, lay at 14.7 nM. On to `COC[C@H](C)Oc1cc(/C=C/c2cc(F)ccc2F)cc(C(=O)Nc2ccc(C(=O)OC)cn2)c1` [Example 68, 3-[trans-2-(2,5-difluorophenyl)vinyl]-5-(2-methoxy-(1S)-methyl-ethoxy)-N-(nicotinic acid-3-methyl ester-6-yl)-benzamide], for which the EC50 is 355 nM. The result for `CC(C)COc1cc(/C=C/c2c(F)cccc2F)cc(C(=O)Nc2nccs2)c1` [Example 72, 3-[trans-2-(2,6-difluorophenyl)vinyl]-5-isobutoxy-N-(thiazol-2-yl)-benzamide] reads 121 nM. In the case of “3-[trans-2-(2,3-dimethoxyphenyl)vinyl]-5-(2-methoxy-(1S)-methyl-ethoxy)-N-(thiazol-2-yl)-benzamide [Example 17]”, the response was half-maximal at 50.4 nM (EC50). Regarding “3-{2-[4-(phenylacetylamino)phenyl]ethyl}-5-(2-methoxy-(1S)-methyl-ethoxy)-N-(thiazol-2-yl)-benzamide [Example 137]”, the EC50 came to 270 nM. Against the preceding compound, the EC50 is about 5.4-fold higher.

`CC(C)/C=C\c1cc(OC(C)C)cc(C(=O)Nc2ncc(C(=O)O)s2)c1` [Comparative Example 2, reference compound]: the EC50 worked out at 1870 nM. In turn, `COC[C@H](C)Oc1cc(/C=C/c2ccccc2[N+](=O)[O-])cc(C(=O)Nc2ccc(C(=O)O)cn2)c1` [Example 74, 3-[trans-2-(2-nitrophenyl)vinyl]-5-(2-methoxy-(1S)-methyl-ethoxy)-N-(nicotinic acid-6-yl)-benzamide] registered an EC50 of 296 nM.

The compound “3-[trans-2-(2-methoxyphenyl)vinyl]-5-(2-methoxy-(1S)-methyl-ethoxy)-N-(pyrazin-2-yl)-benzamide [Example 48]” yielded an EC50 of 281 nM. The EC50 values of the last two compounds are within 1.5-fold of each other. Then “3-[trans-2-(2-methoxyphenyl)vinyl]-5-(2-methoxy-(1S)-methyl-ethoxy)-N-(5-fluorothiazol-2-yl)-benzamide [Example 82]”, with 91.8 nM; and `CC(C)COc1cc(/C=C/c2ccccc2F)cc(C(=O)Nc2nccs2)c1` [Example 70, 3-[trans-2-(2-fluorophenyl)vinyl]-5-isobutoxy-N-(thiazol-2-yl)-benzamide], with 102 nM.

For the compound `COC[C@H](C)Oc1cc(/C=C/c2cccc([N+](=O)[O-])c2)cc(C(=O)Nc2ccc(C(=O)OC)cn2)c1` [Example 63, 3-[trans-2-(3-nitrophenyl)vinyl]-5-(2-methoxy-(1S)-methyl-ethoxy)-N-(nicotinic acid-3-methyl ester-6-yl)-benzamide], the EC50 worked out at 403 nM.

Regarding “3-[2-(3-aminophenyl)ethyl]-5-(2-methoxy-(1S)-methyl-ethoxy)-N-(thiazol-2-yl)-benzamide [Example 91]”, a half-maximal response (EC50) required 68.9 nM. With “3-[trans-2-(4-bromophenyl)vinyl]-5-(2-methoxy-(1S)-methyl-ethoxy)-N-(1-methyl-1H-pyrazol-3-yl)-benzamide [Example 45]”, the EC50 amounted to 181 nM. Then “3-[trans-2-(2,3-difluorophenyl)vinyl]-5-(2-methoxy-(1S)-methyl-ethoxy)-N-(5-fluorothiazol-2-yl)-benzamide [Example 24]”, with 47.3 nM; and “3-[trans-2-(2,3-difluorophenyl)vinyl]-5-(2-methoxy-(1S)-methyl-ethoxy)-N-(1-methyl-1H-pyrazol-3-yl)-benzamide [Example 34]”, with 132 nM. The result for “3-[trans-2-(4-methoxyphenyl)vinyl]-5-(2-methoxy-(1S)-methyl-ethoxy)-N-(pyrazin-2-yl)-benzamide [Example 49]” reads 381 nM; that for “3-[trans-2-(3,4-dimethoxyphenyl)vinyl]-5-(2-methoxy-(1S)-methyl-ethoxy)-N-(5-fluorothiazol-2-yl)-benzamide [Example 30]”, 132 nM; that for `COC[C@H](C)Oc1cc(CCc2ccccc2F)cc(C(=O)Nc2ccn(C)n2)c1` [Example 94, 3-[2-(2-fluorophenyl)ethyl]-5-(2-methoxy-(1S)-methyl-ethoxy)-N-(1-methyl-1-pyrazol-3-yl)-benzamide], 217 nM. The compound “3-[2-(4-butyrylaminophenyl)ethyl]-5-(2-methoxy-(1S)-methyl-ethoxy)-N-(thiazol-2-yl)-benzamide [Example 133]” showed a half-maximal effective concentration (EC50) of 322 nM.

`CCOC(=O)Nc1ccccc1CCc1cc(O[C@@H](C)COC)cc(C(=O)Nc2nccs2)c1` [Example 117, 3-{2-[2-(carbamic acid ethyl ester)phenyl]ethyl}-5-(2-methoxy-(1S)-methyl-ethoxy)-N-(thiazol-2-yl)-benzamide] came in with an EC50 of 229 nM.

As to “3-{2-[3-(4-chlorobenzoylamino)phenyl]ethyl}-5-(2-methoxy-(1S)-methyl-ethoxy)-N-(t hiazol-2-yl)-benzamide [Example 126]”, the EC50 was 364 nM. Regarding “3-[trans-2-(2-nitrophenyl)vinyl]-5-(2-methoxy-(1S)-methyl-ethoxy)-N-(1-methyl-1H-pyrazol-3-yl)-benzamide [Example 32]”, it took 284 nM to reach a half-maximal effect (EC50). With `COC[C@H](C)Oc1cc(/C=C/c2ccccc2F)cc(C(=O)Nc2ccc(C(=O)O)cn2)c1` [Example 76, 3-[trans-2-(2-fluorophenyl)vinyl]-5-(2-methoxy-(1S)-methyl-ethoxy)-N-(nicotinic acid-6-yl)-benzamide], the EC50 was found to be 55.8 nM. This EC50 is about 5.1-fold lower than that of the compound before. The result for “3-[2-(4-benzenesulfonylaminophenyl)ethyl]-5-(2-methoxy-(1S)-methyl-ethoxy)-N-(thiazol-2-yl)-benzamide [Example 144]” reads 411 nM. The result for “3-[trans-2-(2-bromophenyl)vinyl]-5-(2-methoxy-(1S)-methyl-ethoxy)-N-(1-methyl-1H-pyrazol-3-yl)-benzamide [Example 43]” reads 322 nM; that for `COC[C@H](C)Oc1cc(/C=C/c2c(F)cccc2F)cc(C(=O)Nc2ccc(C(=O)O)cn2)c1` [Example 81, 3-[trans-2-(2,6-difluorophenyl)vinyl]-5-(2-methoxy-(1S)-methyl-ethoxy)-N-(nicotinic acid-6-yl)-benzamide], 89.8 nM; that for “3-[trans-2-(4-fluorophenyl)vinyl]-5-(2-methoxy-(1S)-methyl-ethoxy)-N-(thiazol-2-yl)-benzamide [Example 8]”, 86.4 nM. `COC[C@H](C)Oc1cc(/C=C/c2ccc(F)cc2)cc(C(=O)Nc2ccc(C(=O)OC)cn2)c1` [Example 65, 3-[trans-2-(4-fluorophenyl)vinyl]-5-(2-methoxy-(1S)-methyl-ethoxy)-N-(nicotinic acid-3-methyl ester-6-yl)-benzamide] yielded an EC50 of 292 nM. Take “3-[2-(4-acetylaminophenyl)ethyl]-5-(2-methoxy-(1S)-methyl-ethoxy)-N-(thiazol-2-yl)-benzamide [Example 132]”: it took 354 nM to reach a half-maximal effect (EC50).

On to `COC[C@H](C)Oc1cc(/C=C/c2cccc(F)c2F)cc(C(=O)Nc2ccc(C(=O)OC)cn2)c1` [Example 66, 3-[trans-2-(2,3-difluorophenyl)vinyl]-5-(2-methoxy-(1S)-methyl-ethoxy)-N-(nicotinic acid-3-methyl ester-6-yl)-benzamide], for which the concentration for a half-maximal effect (EC50) is 387 nM.
